The target of one data set is T1, human GnRH receptor (Homo sapiens, UniProt P30968).
T1 construct: expressed in transfected cells; host or cells: COS-1 cells, transient transfection (DEAE-Dextran), vector pcDNA I/AMP
T1 sequence (P30968 1-328): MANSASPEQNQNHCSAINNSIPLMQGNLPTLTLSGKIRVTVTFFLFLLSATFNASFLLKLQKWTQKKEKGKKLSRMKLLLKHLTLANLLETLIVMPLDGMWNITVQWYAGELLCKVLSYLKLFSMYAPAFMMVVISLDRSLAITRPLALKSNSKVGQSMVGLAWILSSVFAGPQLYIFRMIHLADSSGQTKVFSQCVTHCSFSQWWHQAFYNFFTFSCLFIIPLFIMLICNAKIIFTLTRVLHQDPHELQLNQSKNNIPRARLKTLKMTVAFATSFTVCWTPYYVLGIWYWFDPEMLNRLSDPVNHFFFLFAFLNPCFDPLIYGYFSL
As to the kind of experiment: GnRH analog-stimulated inositol phosphate (IP) accumulation in COS-1 cells transiently transfected with human GnRH receptor. It counts as cell-based. Here is the method: COS-1 cells were cultured in Dulbecco's modified Eagle's medium/DMEM (Life Technologies, Inc., Paisley, Scotland), supplemented with 10% foetal calf serum (FCS, Delta bioproducts, Kempton Park, South Africa) in a 10% CO2 incubator at 37° C. Cells were harvested with 0.05% trypsin. For all transient transfections 2×10^5 cells/well were seeded into 12-well plates and cultured overnight in DMEM containing 10% FCS and antibiotics (2 mg/ml streptomycin sulphate, 4000 U/ml sodium benzyl penicillin). COS-1 cells were transiently transfected using the DEAE-Dextran method, as previously described.
The transfected COS-1 cells (2×10^5 cells/well) were incubated overnight in 0.5 ml Medium 199 (Life Technologies Inc.) with antibiotics and myo-[2-^3H] inositol (1 μCi/well, Amersham Pharmacia Biotech) as previously described. […] Aspirating the medium and addition of 10 mM formic acid (1 ml/well) terminated the incubation. Inositol phosphates separated from the formic acid extract on DOWEX-1 ion exchange columns and eluted into scintillation liquid (Quicksafe, Zinsser Analytical, Frankfurt, Germany) and the radioactivity was counted.
IP assays were performed in duplicate and four-parameter nonlinear curve fitting (PRISM, GraphPad Software, In., San Diego, Calif.) was used to estimate the peptide concentrations required to stimulate half-maximal IP production (EC50). […]

Data set [1] relates to purified rabbit anti-RI-GnRH antibodies. Nature of the data set: Inhibition immunoassay (ELISA): peptide displacement of anti-RI-GnRH antibodies from fixed RI-GnRH. It counts as binding. Conditions: for inhibition by free peptide of anti-RI-GnRH antibody binding to fixed RI-GnRH: ELISA, increasing peptide concentrations. As for the experimental part:
(§1) Microtitre plates were coated with RI-GnRH peptide (5 μg/ml) in 100 mM Na2CO3 (pH=9.6) and incubated for one hour at 37° C. After several washes with PBS (pH=7.4) plates were saturated for one hour with 1% BSA in PBS supplemented with Tween 20 (0.1% wt/volume) at 37° C. Sera from immunised rabbits and mice at different dilutions (1:500 to 1:3200) were added to the plates and incubated for one hour at 37° C. […] Washed plates were reacted with 3,3′,5,5′-tetramethyl benzidine (TMB) and […] as substrate.
(§2) Nonspecific inhibition was determined with an unrelated L peptide, […](V9C), and an unrelated RI peptide ([…]. Various dilutions of anti-RI-GnRH antibodies were preincubated with increasing concentrations of peptide (3.9-1000 nM) for 1 h at 37° C. The percent inhibition of signal was calculated from the amount of anti-RI-GnRH antibodies that bound RI-GnRH in the presence of increasing peptide concentrations against the amount of anti-RI-GnRH antibodies that bound RI-GnRH in the absence of competing peptide.
Background: An ELISA detects its analyte on a solid surface through an enzyme-linked reagent.

A further data set concerns BALB/c mice. Nature of the data set: Second mice example: immunisation of BALB/c mice with unconjugated RI-GnRH coinjected with CpG, titre and fertility. It counts as in vivo, mouse. The following applies: for Titre 1 (d 37): individual mice 1-6, without complete Freund's adjuvant. Here is the method: In the second experiment, four week old BALB/c mice (3 of each sex) were immunised with 25 μg/mouse unconjugated RI-GnRH coinjected with CpG (50 μg/mouse) oligonucleotide and m-BSA. A control group (2 of each sex) received saline buffer together with 50 μg/mouse CpG oligonucleotide as adjuvant (Klinman, et al., 1999) supplemented with 200 μg m-BSA. All injections were given in 10% v/v IFA. Mice were immunised at days 1, 15 and 30. They were bled and mated with partners of proven fertility at day 37 after the initial immunisation.
as §1

For another data set, the system named is male BALB/c mice. The data set is classed as in vivo, mouse. Here is the method: Nine male BALB/c mice (Janvier, France), nine weeks of age, were immunised intraperitoneally (i.p.) with either 25 μg/mouse RI-GnRH conjugated with MAO (n=5) or saline buffer (n=4). The primary injections were given in CFA supplemented with 200 μg m-BSA. These were followed by two-booster injections in IFA and m-BSA at day 15 and 45 after primary injection. The mice were weighed and bled one week after each immunisation. On day 45, males injected with RI-GnRH conjugate or saline were placed with females of proven fertility and litters observed. The males were sacrificed 75 days after primary injection for histological examination.
as §1, §2
Male mice were sacrificed and the testes dissected. Testes were weighed and fixed in formalin/saline solution (12%) for routine histology. The fixed testes were dehydrated, sectioned (5 μm thick) and stained with haematoxylin and eosin.

Another data set has as its system rabbits. As to the kind of experiment: Rabbit immunisation with RI-GnRH conjugated with MAO. The data set is classed as in vivo. The following applies: 100 μg/rabbit conjugated with MAO, CFA then IFA boosters. Here is the method:
Two adult female rabbits (Harlan, Leicestershire, UK) were immunised with RI-GnRH (100 μg/rabbit) conjugated with MAO. The primary injections were given subcutaneously in complete Freund's adjuvant (CFA). These were followed by three booster injections (1 ml/rabbit) in incomplete Freund's adjuvant (IFA) at two week intervals. The last booster injection was given four weeks later using 200 μg free peptide together with 1 mg methylated-BSA (m-BSA). The rabbits were bled one week after each injection. Two experiments were performed with mice to test whether immunization with RI-GnRH would generate GnRH antibodies, and different methods of immunization with RI-GnRH were tested.
as §1

Data set [2] has as its target T2, GnRH (Homo sapiens, UniProt P01148).
T2 construct: made in house; host or cells: chemical solid-phase synthesis (University of Cape Town); receptor expressed in transfected COS-1 cells
As to the kind of experiment: Antiserum/antibody inhibition of GnRH stimulated IP accumulation in COS-1 cells transfected with human GnRH receptor. The data set is classed as cell-based, mammalian. As for the experimental part:
(§3) The transfected COS-1 cells (2×10^5 cells/well) were incubated overnight in 0.5 ml Medium 199 (Life Technologies Inc.) with antibiotics and myo-[2-^3H] inositol (1 μCi/well, Amersham Pharmacia Biotech) as previously described. The labelled cells were incubated with various concentrations of GnRH-analogs for one hour at 37° C. in the presence of LiCl as described. Aspirating the medium and addition of 10 mM formic acid (1 ml/well) terminated the incubation. Inositol phosphates separated from the formic acid extract on DOWEX-1 ion exchange columns and eluted into scintillation liquid (Quicksafe, Zinsser Analytical, Frankfurt, Germany) and the radioactivity was counted. […] Serum from the same rabbits before immunisation was also tested. […] After one hour the incubation was terminated with formic acid and inositol phosphates were separated and counted as described. […] The mixture was added to labelled cells, and the inhibition of IP production was calculated. […] Purified anti-RI-GnRH antibodies were tested for their ability to discriminate among GnRH, [[…]]GnRH, and GnRH II. […] Stimulating with these concentrations [half-maximal effective concentrations (EC50)] in the absence of antibody produced similar levels of IP counts. […] The mixture was added to labelled cells and the inhibition of IP production calculated as described. IP assays were performed in duplicate and four-parameter nonlinear curve fitting (PRISM, GraphPad Software, In., San Diego, Calif.) was used to estimate the peptide concentrations required to stimulate half-maximal IP production (EC50). […] All kinetic analysis was performed with BiaEvaluation 3 (BIACORE) software, using the standard χ^2 statistic test. […] All statistical analyses were performed with StatView, using a standard correlation program.

The test system of data set [3] is GnRH. Described as above. It counts as cell-based, mammalian. The following applies: 5 nM antibody fraction; 0.3 nM GnRH, 1 nM [Gln^8]GnRH, 1 nM GnRH II. As for the experimental part: as §3
The subject of the next data set is RI-GnRH peptide. As to the kind of experiment: ELISA binding of purified anti-RI-GnRH antibody fractions to RI-GnRH. Conditions: ELISA titre. As for the experimental part:
as §1

Values joined by “and” are separate entries in the source; they are usually repeats but may differ in a detail not shown here. Identical values can stand only once. “Also recorded” adds a separate entry of the source. Non-standard residues stand in square brackets, D forms with d. Residues, ends and D or L forms follow the SMILES beside them. No end group written: not given here. pGlu = O=C1CC[C@@H](C(=O)O)N1

Experimental findings from patent US7803381B2, “Retro-inverso gonadotropin-releasing hormone peptide and vaccine composition” (Shimoda Biotech (Pty) Ltd., priority 2002, dated 2010) are described below.

`NC(=O)CNC(=O)[C@@H]1CCCN1C(=O)[C@H](Cc1ccc(O)cc1)NC(=O)[C@H](Cc1c[nH]c2ccccc12)NC(=O)CNC(=O)[C@H](Cc1c[nH]cn1)NC(=O)[C@H](CO)NC(=O)[C@H](Cc1c[nH]c2ccccc12)NC(=O)[C@H](Cc1c[nH]cn1)NC(=O)[C@@H]1CCC(=O)N1` [GnRH II, [His^5, Trp^7, Tyr^8]GnRH, reference compound] ([pGlu]HWSHGWYPG-NH2): the EC50 on human GnRH receptor (absence of antibody, read-out: EC50 of ligand-stimulated IP accumulation) stood at 1 nM. For the same compound, in data set [1], the “inhibition by free peptide of anti-RI-GnRH antibody binding to fixed RI-GnRH” value (shortened to “inhibition by free peptide”) was “cross-react less”.

Turning to `CC(C)C[C@H](NC(=O)CNC(=O)[C@H](Cc1ccc(O)cc1)NC(=O)[C@H](CO)NC(=O)[C@H](Cc1c[nH]c2ccccc12)NC(=O)[C@H](Cc1c[nH]cn1)NC(=O)[C@@H]1CCC(=O)N1)C(=O)N[C@@H](CCCNC(=N)N)C(=O)N1CCC[C@H]1C(=O)NCC(N)=O` [GnRH], the “inhibition by free peptide” value in data set [1] is on record as “could also inhibit”.

With “GPRLGYSWHEC (G[dP][dR][dL]G[dY][dS][dW][dH][dE][dC]; not fully specified) [RI-GnRH, retro-inverso GnRH peptide with additional C-terminal cysteine for conjugation]”, in the data set with human GnRH receptor (data not shown, listed as RI-GnRH peptide), the “effect of RI-GnRH peptide alone on IP accumulation / GnRH stimulated IP accumulation” value is “could not stimulate or inhibit; also recorded: did not stimulate or inhibit”. In addition, in the data set on BALB/c mice (25 μg/mouse unconjugated RI-GnRH with CpG 50 μg/mouse, m-BSA, 10% IFA), the “production of anti-RI-GnRH antibodies” value is “produced anti-RI-GnRH antibodies, which cross-reacted with the native hormone”. In the data set on BALB/c mice (boosted at day 97), the “mice infertile until day 220” value was “four mice stayed infertile”. Further, in the data set with BALB/c mice (boosted at day 97, mated one week thereafter), the “infertile mice on day 120” value is “Two mice were infertile”. Moreover, the “Titre 1 (d 37)” value in the data set on BALB/c mice (female mice) was 3.00E−05 and 1.30E−04 and 1.00E−02. Also, the “Titre 1 (d 37)” value in the data set on BALB/c mice (male mice) was 3.00E−05 and 1.00E−03 and 5.00E−04. Moreover, in the data set with BALB/c mice (male and female mice paired with normal partners), the “fertility after pairing at day 37” value is reported as “All mice were infertile after pairing at day 37, except for one”. Also, in the data set with BALB/c mice (mouse, in vivo), the “adverse side effects or changes in body weight” value is “no indication of adverse side effects or changes in body weight” and the “litters from further matings up to day 90” value is given as “no litters”. Besides, the “inhibition by free peptide” value in data set [1] is “incrementally decreased”. Besides, in the data set on male BALB/c mice (25 μg/mouse conjugated with MAO, i.p., CFA + m-BSA), the “development of anti-RI-GnRH antibodies” value is listed as “All five immunised male mice developed anti-RI-GnRH antibodies”. The testis histology result with male BALB/c mice (males sacrificed 75 days after primary injection) is “atrophied Leydig and Sertoli cells, less spermatogonia and primary spermatocytes, presence of very few spermatids and reduced diameters of the seminiferous tubules”. Further, the “infertile immunised male mice” value with male BALB/c mice (mated with normal females from day 45) is listed as “Two of the group of five”. In the data set on male BALB/c mice (mouse, in vivo), the “adverse side effects or changes in body weight” value was “no indication of adverse side effects or changes in body weight” and the testis weight entry is given as “reduced testis weight”. Besides, the anti-RI-GnRH antibody response entry in the data set with rabbits is recorded as “high titre”.

KSCN: the IC50 at GnRH [2] (0.3 nM GnRH, read-out: antibody concentration inhibiting 50% of GnRH-stimulated IP accumulation) came to 1.7 nM. Also, the “inhibition of GnRH (analog) stimulated IP production by eluted antibody fractions” value with GnRH [3] is recorded as “most effective”. In addition, the “cross-reaction of eluted antibody fractions with GnRH” value in data set [1] (inhibition ELISA) was “cross-reacted most efficiently”.

In the case of VRTVEDGEC [V9C, unrelated L peptide], the “inhibition by free peptide” value in data set [1] is given as “not significantly inhibited; also recorded: low inhibition”.

Take glycine: on GnRH [2] (5 nM antibody fraction), the “fold suppression of EC50 of GnRH-stimulated IP accumulation” value is on record as 4.4 fold. Besides, in the data set with RI-GnRH peptide, the “affinity of antibody populations for RI-GnRH peptide” value was “higher affinity than those eluted with KSCN”.

For orientation: EC50 means the midpoint of the concentration-response curve.
